Converted amounts (≈) assume the structure as drawn. Marks after values point to notes of the source that are not given here.
Columns and labels:
[1] = tested on: Staphylococcus aureus ATCC 6538 adherent organisms (biofilm); assay: MIC/MBC in adherent-cell biofilm of S. aureus ATCC 6538; assay type: cell-based; conditions: for Adherent organisms (biofilm) MIC^b: S. aureus ATCC 6538, 20 h; for Adherent organisms (biofilm) MBC^b: S. aureus ATCC 6538, regrowth 20 h in antibiotic-free MHB
Protocol: An adherent biofilm for susceptibility testing was formed using a clinical isolate of Staphylococcus aureus (ATCC 6538). S. aureus biofilms were prepared in a tissue culture non-treated polystyrene 96-well plate (Corning) and washed with phosphate-buffered saline (PBS) to remove unbound bacteria. Subsequently, serial twofold dilutions of the compounds in MHB were added to wells containing adherent organisms. The polystyrene plates were incubated for 20 h at 37° C. The MIC was taken as the lowest drug concentration at which observable growth was inhibited.

[2] = tested on: C. elegans infected with VRE; assay: Treatment of C. elegans infected with VRE; conditions: VRE-infected worms, 100 μM; for Log CFU/worm: 16 hours treatment; for Log Reduction: versus DMSO control
S. aureus HMGR = S. aureus HMGR (Staphylococcus aureus, UniProt Q9FD86); assay: biochemical
[3] = tested on: methicillin-resistant Staphylococcus aureus (MRSA) ATCC 43300; assay: MIC/MBC micro dilution against MRSA; conditions: for MBC, μM: MRSA, Table 1; for MRSA MBC: MRSA ATCC 43300, MHB, 20 hours, Table 2; for MBC / MIC: Staphylococcus aureus
[4] = tested on: Staphylococcus aureus ATCC 6538 planktonic organisms (not in biofilm); assay: MIC/MBC against planktonic S. aureus ATCC 6538; assay type: cell-based
J774A.1 cells = assay: In vitro cell viability/cytotoxicity MTS assay; assay type: cell-based; conditions: 100 μM, 24 hours
Protocol: Cytotoxicity of the compounds was evaluated using J774A.1 cells (mitochondrial function) in the CellTiter 96® AQueous Non-Radioactive Cell Proliferation Assay (Promega). […] Formazan is measured by measuring the absorbance at 490 nm. Briefly, ˜2×10^4 J774A.1 cells suspended in 200 μL DMEM supplemented with 10% fetal bovine serum (FBS), L-glutamine, NaHCO3, pyridoxine-HCl, and […] glucose and preserved with 1% penicillin-streptomycin solution were seeded in 96-well plates and incubated at 37° C. in a 5% CO2 atmosphere. The cells were cultured for 24 hours (60% confluency) before the assays. The J774A.1 cells were further incubated with 100 μM of compounds (2f, […], 2j, and 2e) and DMSO as a control for 24 hours. The culture media was discarded, and the cells in each well were washed with PBS and re-suspended with 100 μL of cell culture media prior to addition of the assay reagent. The plates were incubated for 4 hours at 37° C. in a humidified 5% CO2 atmosphere. The absorbance at 490 nm was recorded using a 96-well Elisa plate reader (SoftMax ProInc., USA). Results were expressed as the percentage mean absorbance by cells upon incubation with various treatments (compounds 2f, 2j, 2i, and 2e) with respect to incubation with DMSO. The results are expressed as means from six measurements±SD.

[5] = tested on: Candida albicans ATCC 18804; assay: MIC/MFC against Candida albicans in YM broth; assay type: cell-based; conditions: yeast medium broth
Protocol: Antifungal activities of 22 HMG-CoA Reductase inhibitors were initially tested at 100 μM concentration against Candida albicans ATCC 18804.

[6] = tested on: vancomycin resistant Enterococcus faecalis (VRE) ATCC 51299; assay: MIC/MBC micro dilution against VRE; conditions: VRE ATCC 51299, MHB, 20 hours
[7] = tested on: vancomycin intermediate Staphylococcus aureus (VISA) NRS1; assay: MIC/MBC against clinical VISA isolate
[8] = tested on: clinical methicillin-resistant Staphylococcus aureus (MRSA) isolates; assay: MIC/MBC against clinical MRSA isolates
[9] = tested on: C. elegans infected with MRSA; assay: Treatment of C. elegans infected with MRSA; conditions: MRSA-infected worms, 100 μM; for Log CFU/worm: 16 hours treatment; for Log Reduction: versus DMSO control

S. aureus HMGR, sequence (Q9FD86 entry or part of it): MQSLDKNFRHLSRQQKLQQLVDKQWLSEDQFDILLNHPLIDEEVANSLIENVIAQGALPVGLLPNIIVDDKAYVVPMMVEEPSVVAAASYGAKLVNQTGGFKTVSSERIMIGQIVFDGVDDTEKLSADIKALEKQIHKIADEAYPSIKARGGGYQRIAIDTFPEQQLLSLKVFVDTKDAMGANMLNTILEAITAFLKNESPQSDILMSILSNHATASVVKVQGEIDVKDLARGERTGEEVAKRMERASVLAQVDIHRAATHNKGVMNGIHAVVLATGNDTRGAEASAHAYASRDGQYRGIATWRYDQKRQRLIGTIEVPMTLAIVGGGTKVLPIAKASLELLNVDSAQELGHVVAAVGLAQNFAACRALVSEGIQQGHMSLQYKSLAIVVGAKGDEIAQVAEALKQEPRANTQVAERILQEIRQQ

CC(=O)NC[C@H]1CN(c2ccc(N3CCOCC3)c(F)c2)C(=O)O1 [Linezolid, linezolid, reference compound]
Adherent organisms (biofilm) MIC^b [1]: 4 µM
Adherent organisms (biofilm) MBC^b [1]: 16 µM
Log CFU/worm [2]: 1.47 ± 0.06 Log CFU/worm
Log Reduction [2]: 3.43*

CCCCCCCCCCCCCCc1ccc(NS(=O)(=O)c2ccc(O)c(C(=O)O)c2)cc1 [Compound 2h, 2-hydroxy-5-[N-(4-tetradecylphenyl)sulfamoyl]benzoic acid]
IC50 (S. aureus HMGR): 1.9 µM
improvement of IC50 over lead compound 1 (S. aureus HMGR): 45 fold
MBC, μM [3]: lost bactericidal activity

CCc1ccc(NS(=O)(=O)c2ccc(O)c(C(=O)O)c2)cc1 [Compound 2a, 5-[N-(4-ethylphenyl)sulfamoyl]-2-hydroxybenzoic acid]
IC50, μM (S. aureus HMGR): ^d (No significant inhibition of HMGR activity was observed at the concentrations tested.)

CCCCCCc1ccc(NS(=O)(=O)c2ccc(O)c(C(=O)O)c2)cc1 [Compound 2d, 5-[N-(4-hexylphenyl)sulfamoyl]-2-hydroxybenzoic acid]
IC50 (S. aureus HMGR): 77 ± 6 µM
Planktonic organisms (not in biofilm) MBC [4]: 128 µM
Planktonic organisms (not in biofilm) MIC [4]: 128 µM
Adherent organisms (biofilm) MIC^b [1]: 128 µM
Adherent organisms (biofilm) MBC^b [1]: >128 µM
MRSA MBC [3]: 128/128
MBC [3]: 128 µM (≈ 48.3 µg/mL)
MIC [3]: 128 µM (≈ 48.3 µg/mL)

CCCCCCCc1ccc(NS(=O)(=O)c2ccc(O)c(C(=O)O)c2)cc1 [Compound 2e, 5-[N-(4-heptylphenyl)sulfamoyl]-2-hydroxybenzoic acid]
IC50 (S. aureus HMGR): 28 µM
percentage mean absorbance at 490 nm (MTS) versus DMSO (J774A.1 cells): no significant differences in percentage mean absorption
Candida albicans MFC [5]: 128 µM
Candida albicans MIC [5]: 64 µM
Planktonic organisms (not in biofilm) MBC [4]: 64 µM
Planktonic organisms (not in biofilm) MIC [4]: 64 µM
Adherent organisms (biofilm) MIC^b [1]: 64 µM
Adherent organisms (biofilm) MBC^b [1]: 128 µM
VRE MBC [6]: 64/64
MRSA MBC [3]: 64/64
MBC [3]: 64 µM (≈ 25.1 µg/mL)
MIC [3]: 64 µM (≈ 25.1 µg/mL)
MBC [7]: 16 µM (≈ 6.26 µg/mL)
MIC [7]: 16 µM (≈ 6.26 µg/mL)
MBC ([8]; MRSA / NRS123 / USA400): 32 µM (≈ 12.5 µg/mL)
MIC ([8]; MRSA / NRS123 / USA400): 32 µM (≈ 12.5 µg/mL)
MBC ([8]; MRSA / NRS382 / USA100): 32 µM (≈ 12.5 µg/mL)
MIC ([8]; MRSA / NRS382 / USA100): 32 µM (≈ 12.5 µg/mL)
MBC ([8]; MRSA / NRS383 / USA200): 32 µM (≈ 12.5 µg/mL)
MIC ([8]; MRSA / NRS383 / USA200): 16 µM (≈ 6.26 µg/mL)
MBC ([8]; MRSA / NRS384 / USA300): 32 µM (≈ 12.5 µg/mL)
MIC ([8]; MRSA / NRS384 / USA300): 32 µM (≈ 12.5 µg/mL)
MBC ([8]; MRSA / NRS385 / USA500): 16 µM (≈ 6.26 µg/mL)
MIC ([8]; MRSA / NRS385 / USA500): 16 µM (≈ 6.26 µg/mL)
MBC ([8]; MRSA / NRS386 / USA700): 32 µM (≈ 12.5 µg/mL)
MIC ([8]; MRSA / NRS386 / USA700): 32 µM (≈ 12.5 µg/mL)
MBC ([8]; MRSA / NRS387 / USA800): 32 µM (≈ 12.5 µg/mL)
MIC ([8]; MRSA / NRS387 / USA800): 16 µM (≈ 6.26 µg/mL)
MBC ([8]; MRSA / NRS483): 32 µM (≈ 12.5 µg/mL)
MIC ([8]; MRSA / NRS483): 16 µM (≈ 6.26 µg/mL)
MBC ([8]; MRSA / NRS484): 32 µM (≈ 12.5 µg/mL)
MIC ([8]; MRSA / NRS484): 16 µM (≈ 6.26 µg/mL)
Log CFU/worm [2]: 0.86 ± 1.03 Log CFU/worm
Log Reduction [2]: 4.04*
Log CFU/worm [9]: 1.80 ± 0.10 Log CFU/worm
Log Reduction [9]: 3.24*

CCCCc1ccc(NS(=O)(=O)c2ccc(OCC(N)=O)c(C(=O)O)c2)cc1 [Compound 3, 5-[N-(4-butylphenyl)sulfamoyl]-2-(carbamoylmethoxy)benzoic acid]
MBC, μM [3]: failed to show any enzymatic inhibition or bactericidal activity

CC(C)CCCc1ccc(NS(=O)(=O)c2ccc(O)c(C(=O)O)c2)cc1 [Compound 2i, 2-hydroxy-5-[N-(4-(4-methylpentyl)phenyl]sulfamoyl)benzoic acid]
IC50 (S. aureus HMGR): 36 ± 4 µM
percentage mean absorbance at 490 nm (MTS) versus DMSO (J774A.1 cells): no significant differences in percentage mean absorption
Planktonic organisms (not in biofilm) MBC [4]: 128 µM
Planktonic organisms (not in biofilm) MIC [4]: 128 µM
Adherent organisms (biofilm) MIC^b [1]: 128 µM
Adherent organisms (biofilm) MBC^b [1]: 128 µM
MIC [3]: 64 µM (≈ 24.2 µg/mL)

CCCCCc1ccc(NS(=O)(=O)c2ccc(O)c(C(=O)O)c2)cc1 [Compound 2c, 2-hydroxy-5-[N-(4-pentylphenyl)sulfamoyl]benzoic acid]
IC50 (S. aureus HMGR): 98 ± 3 µM

CCCCCCCCCCCCc1ccc(NS(=O)(=O)c2ccc(O)c(C(=O)O)c2)cc1 [Compound 2g, 5-[N-(4-dodecylphenyl)sulfamoyl]-2-hydroxybenzoic acid]
IC50 (S. aureus HMGR): 5.9 ± 0.5 µM
VRE MBC [6]: 128/128
MRSA MBC [3]: 128/>128
MBC [3]: 128 µM (≈ 59.1 µg/mL)
MIC [3]: 128 µM (≈ 59.1 µg/mL)

O=C(O)c1cc(S(=O)(=O)Nc2ccc(CCc3ccccc3)cc2)ccc1O [Compound 2m, 2-hydroxy-5-[N-(4-phenethylphenyl)sulfamoyl]benzoic acid]
MBC, μM [3]: no enzymatic inhibition or bactericidal activity

CC(C)(C)CCc1ccc(NS(=O)(=O)c2ccc(O)c(C(=O)O)c2)cc1 [Compound 2k, 5-[N-(4-(3,3-dimethylbutyl)phenyl)sulfamoyl]-2-hydroxybenzoic acid]
VRE MBC [6]: 128/128
MBC, μM [3]: failed to exhibit any activity

O=C(O)c1cc(S(=O)(=O)Nc2ccc(CCC3CCCCC3)cc2)ccc1O [Compound 2l, 5-[N-(4-(2-cyclohexylethyl)phenyl)sulfamoyl]-2-hydroxybenzoic acid]
IC50 (S. aureus HMGR): 16.2 ± 10 µM
VRE MBC [6]: 64/64
MRSA MBC [3]: 32/32
MBC [3]: 32 µM (≈ 12.9 µg/mL)
MIC [3]: 32 µM (≈ 12.9 µg/mL)
MBC [7]: 16 µM (≈ 6.46 µg/mL)
MIC [7]: 16 µM (≈ 6.46 µg/mL)
MBC ([8]; MRSA / NRS123 / USA400): 16 µM (≈ 6.46 µg/mL)
MIC ([8]; MRSA / NRS123 / USA400): 16 µM (≈ 6.46 µg/mL)
MBC ([8]; MRSA / NRS382 / USA100): 16 µM (≈ 6.46 µg/mL)
MIC ([8]; MRSA / NRS382 / USA100): 16 µM (≈ 6.46 µg/mL)
MBC ([8]; MRSA / NRS383 / USA200): 16 µM (≈ 6.46 µg/mL)
MIC ([8]; MRSA / NRS383 / USA200): 16 µM (≈ 6.46 µg/mL)
MBC ([8]; MRSA / NRS384 / USA300): 16 µM (≈ 6.46 µg/mL)
MIC ([8]; MRSA / NRS384 / USA300): 16 µM (≈ 6.46 µg/mL)
MBC ([8]; MRSA / NRS385 / USA500): 16 µM (≈ 6.46 µg/mL)
MIC ([8]; MRSA / NRS385 / USA500): 16 µM (≈ 6.46 µg/mL)
MBC ([8]; MRSA / NRS386 / USA700): 16 µM (≈ 6.46 µg/mL)
MIC ([8]; MRSA / NRS386 / USA700): 16 µM (≈ 6.46 µg/mL)
MBC ([8]; MRSA / NRS387 / USA800): 16 µM (≈ 6.46 µg/mL)
MIC ([8]; MRSA / NRS387 / USA800): 16 µM (≈ 6.46 µg/mL)
MBC ([8]; MRSA / NRS483): 16 µM (≈ 6.46 µg/mL)
MIC ([8]; MRSA / NRS483): 8 µM (≈ 3.23 µg/mL)
MBC ([8]; MRSA / NRS484): 16 µM (≈ 6.46 µg/mL)
MIC ([8]; MRSA / NRS484): 16 µM (≈ 6.46 µg/mL)
Log CFU/worm [2]: 0.43 ± 0.68 Log CFU/worm
Log Reduction [2]: 4.47*
Log CFU/worm [9]: 2.20 ± 0.43 Log CFU/worm
Log Reduction [9]: 2.84*

CCCc1ccc(NS(=O)(=O)c2ccc(O)c(C(=O)O)c2)cc1 [Compound 2b, 2-hydroxy-5-[N-(4-propylphenyl)sulfamoyl]benzoic acid]
IC50, μM (S. aureus HMGR): ^d (No significant inhibition of HMGR activity was observed at the concentrations tested.)

Reference: patent publication US9604925B2, “Class II HMG-CoA reductase inhibitors and methods of use” (Purdue Research Foundation, priority 2012, dated 2017)
